How the values were obtained:
Experiment in all cases: relative viability (nuclei count vs DMSO), 5 days (fraction); higher = more cells survive
Cediranib + Foretinib = compound: COc1cc2c(Oc3ccc4[nH]c(C)cc4c3F)ncnc2cc1OCCCN1CCCC1 [Cediranib] + COc1cc2c(Oc3ccc(NC(=O)C4(C(=O)Nc5ccc(F)cc5)CC4)cc3F)ccnc2cc1OCCCN1CCOCC1 [Foretinib] (partner 0.25 µM)
How it was run: (§1)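 Relative viability was taken as the ratio of nuclei in treated wells to nuclei in vehicle wells. Lung cancer cell lines in 1536-well plates received compounds by pin tool one day after seeding, either one drug alone or a fixed anchor-drug dose plus five library-drug doses (not always all listed) in √10 steps. Nuclei were counted on 4× images after 5 days of treatment, and values are medians of duplicate plates.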

[1] = compound: O=C(C[C@H]1NCCC[C@@H]1O)Cn1cnc2cc(Br)c(Cl)cc2c1=O (racemic) [Halofuginone] + CC(C)C[C@H](NC(=O)[C@H](Cc1ccccc1)NC(=O)c1cnccn1)B(O)O [Bortezomib] (partner 0.002 µM)
How it was run: as §1

Cediranib + Vorinostat = compound: COc1cc2c(Oc3ccc4[nH]c(C)cc4c3F)ncnc2cc1OCCCN1CCCC1 [Cediranib] + O=C(CCCCCCC(=O)Nc1ccccc1)NO [Vorinostat] (partner 1 µM)
How it was run: as §1

[2] = compound: O=C(C[C@H]1NCCC[C@@H]1O)Cn1cnc2cc(Br)c(Cl)cc2c1=O (racemic) [Halofuginone] + CCNC(=O)c1noc(-c2cc(C(C)C)c(O)cc2O)c1-c1ccc(CN2CCOCC2)cc1 [Luminespib] (partner 0.01 µM)
How it was run: as §1

| Cell Line | relative viability (Cediranib + Foretinib; first compound 0.04 µM) | relative viability (Cediranib + Foretinib; first compound 0.1265 µM) | relative viability (Cediranib + Foretinib; first compound 0.4 µM) | relative viability (Cediranib + Foretinib; first compound 1.265 µM) | relative viability (Cediranib + Foretinib; first compound 4 µM) | relative viability ([1]; first compound 0.001 µM) | relative viability ([1]; first compound 0.003162 µM) | relative viability ([1]; first compound 0.01 µM) | relative viability ([1]; first compound 0.03162 µM) | relative viability ([1]; first compound 0.1 µM) | relative viability (Cediranib + Vorinostat; first compound 0.04 µM) | relative viability (Cediranib + Vorinostat; first compound 0.1265 µM) | relative viability (Cediranib + Vorinostat; first compound 0.4 µM) | relative viability (Cediranib + Vorinostat; first compound 1.265 µM) | relative viability (Cediranib + Vorinostat; first compound 4 µM) | relative viability ([2]; first compound 0.001 µM) | relative viability ([2]; first compound 0.003162 µM) | relative viability ([2]; first compound 0.01 µM) | relative viability ([2]; first compound 0.03162 µM) | relative viability ([2]; first compound 0.1 µM) |
| --- | --- | --- | --- | --- | --- | --- | --- | --- | --- | --- | --- | --- | --- | --- | --- | --- | --- | --- | --- | --- |
| HCC-366 | 0.935 | 0.902 | 0.772 | 0.94 | 1.01 | 0.948 | 1.06 | 1.04 | 0.994 | 0.397 | 0.346 | 0.401 | 0.29 | 0.287 | 0.394 | – | – | – | – | – |
| HCC-827 | 1.2 | – | 0.986 | 1.05 | 1.03 | 1.04 | 1.03 | 0.955 | 0.998 | 0.918 | 0.847 | 0.574 | 0.846 | 0.729 | 1.12 | 0.453 | 0.473 | 0.478 | 0.705 | 0.504 |
| HOP-62 | 1.3 | 1.15 | 1.1 | 1.15 | 1.22 | 0.679 | 0.702 | 0.62 | 0.632 | 0.522 | 0.633 | 0.418 | 0.575 | 0.468 | 0.896 | 0.817 | 0.96 | 0.902 | 0.921 | 0.818 |
| IA-LM | 1.16 | 1.32 | 1.07 | 1.26 | 1.33 | 0.894 | 0.741 | 0.664 | 0.533 | 0.0776 | 1.12 | – | 0.895 | 1.03 | 1.06 | – | – | – | – | – |
| LC-2-ad | 1.12 | 0.581 | 0.883 | 1.04 | 0.891 | 1.3 | 1.08 | 0.972 | 1.01 | 0.667 | 0.678 | 0.625 | 0.669 | 0.825 | 0.705 | 1.08 | 1 | 0.848 | 1.01 | 0.326 |
| LCLC-97TM1 | 0.969 | 0.919 | 0.946 | 0.921 | 0.967 | 0.49 | 0.365 | 0.512 | 0.144 | 0.179 | 0.655 | – | 0.536 | 0.707 | 1.08 | 0.741 | 0.801 | 0.905 | 0.791 | 0.854 |
| LK-2 | 1.43 | 0.875 | 1.23 | 1.19 | 1.01 | – | – | – | – | – | 0.352 | 0.332 | 0.421 | 0.353 | 0.279 | 0.152 | 0.147 | 0.181 | 0.205 | 0.179 |
| NCI-H358 | 0.712 | 0.809 | 0.677 | 0.616 | 0.763 | – | – | – | – | – | 0.689 | 1.05 | 0.638 | 0.705 | 0.648 | 0.306 | 0.455 | 0.229 | 0.205 | 0.154 |
| NCI-H522 | – | – | – | – | – | – | – | – | – | – | 0.842 | 0.472 | 0.925 | 0.817 | 0.811 | 1.14 | 1.81 | 1.12 | 1.28 | 1.09 |
| NCI-H1299 | 1.1 | 1.05 | 1.13 | 1.1 | 1.15 | 1.08 | 1.02 | 1 | 0.986 | 0.851 | – | – | – | – | – | – | – | – | – | – |
| NCI-H1395 | 1.1 | 1.01 | 0.911 | 0.976 | 1.13 | – | – | – | – | – | 0.686 | 0.689 | 0.601 | 0.645 | 0.711 | 0.826 | 0.655 | 0.626 | 0.656 | 0.642 |
| NCI-H1563 | 0.976 | 1.09 | 0.908 | 0.958 | 0.936 | 0.708 | 0.885 | 0.686 | 0.585 | 0.515 | – | – | – | – | – | 0.487 | 0.493 | 0.547 | 0.534 | 0.467 |
| NCI-H1623 | 0.974 | 0.59 | 0.793 | 0.861 | 0.805 | – | – | – | – | – | – | – | – | – | – | 0.622 | 0.465 | 0.461 | 0.622 | 0.485 |
| NCI-H1648 | – | – | – | – | – | – | – | – | – | – | 0.569 | 0.474 | 0.511 | 0.271 | 0.425 | – | – | – | – | – |
| NCI-H1703 | 0.468 | 0.37 | 0.247 | 0.33 | 0.337 | 0.363 | 0.333 | 0.305 | 0.282 | 0.224 | – | – | – | – | – | – | – | – | – | – |
| NCI-H1792 | – | – | – | – | – | 0.965 | 1.01 | 1.01 | 0.942 | 0.866 | – | – | – | – | – | 0.498 | 0.402 | 0.414 | 0.452 | 0.296 |
| NCI-H1793 | 0.758 | 0.931 | 0.698 | – | 0.672 | – | – | – | – | – | 0.954 | 0.679 | 0.67 | 0.49 | 0.797 | 0.181 | 0.191 | 0.172 | 0.211 | 0.161 |
| NCI-H1944 | 0.95 | 0.975 | 0.905 | 0.873 | 1 | – | – | – | – | – | 0.588 | 0.694 | 0.502 | 0.53 | 0.643 | 0.647 | 0.7 | 0.763 | 0.735 | 0.313 |
| NCI-H2170 | 1.02 | 0.987 | 0.931 | 1.01 | 1.12 | – | – | – | – | – | 0.88 | – | 0.793 | 0.718 | 0.962 | 0.681 | 0.631 | 0.557 | 0.758 | 0.603 |
| NCI-H2342 | 1.14 | 1.07 | 0.927 | 1.06 | 1.12 | – | – | – | – | – | 0.712 | 0.791 | 0.733 | 0.613 | 0.758 | 0.817 | 0.719 | 0.699 | 0.731 | 0.64 |
| SK-MES-1 | 0.834 | 1.02 | 0.927 | 0.901 | 0.976 | – | – | – | – | – | 1.17 | 1.04 | 0.966 | 1.05 | 1.21 | 0.842 | 0.704 | 0.756 | 0.284 | 0.164 |
| SW 900 | 0.535 | 0.877 | 0.878 | 0.98 | 1.18 | – | – | – | – | – | 0.425 | 0.413 | 0.438 | 0.478 | 0.495 | 0.205 | 0.187 | 0.144 | 0.181 | 0.154 |

From the supplement of paper PMC10307832
